# Read-outs that look alike come from different tables or passages of the source.
# B1: recombinant human CYP2D6 (Homo sapiens) (protein)
# chain: MGLEALVPLAVIVAIFLLLVDLMHRRQRWAARYPPGPLPLPGLGNLLHVDFQNTPYCFDQLRRRFGDVFSLQLAWTPVVVLNGLAAVREALVTHGEDTADRPPVPITQILGFGPRSQGVFLARYGPAWREQRRFSVSTLRNLGLGKKSLEQWVTEEAACLCAAFANHSGRPFRPNGLLDKAVSNVIASLTCGRRFEYDDPRFLRLLDLAQEGLKEESGFLREVLNAVPVLLHIPALAGKVLRFQKAFLTQLDELLTEHRMTWDPAQPPRDLTEAFLAEMEKAKGNPESSFNDENLRIVVADLFSAGMVTTSTTLAWGLLLMILHPDVQRRVQQEIDDVIGQVRRPEMGDQAHMPYTTAVIHEVQRFGDIVPLGVTHMTSRDIEVQGFRIPKGTTLITNLSSVLKDEAVWEKPFRFHPEHFLDAQGHFVKPEAFLPFSAGRRACLGEPLARMELFLFFTSLLQHFSFSVPTGQPRPSHHGVFAFLVSPSPYELCAVPR
# How the values were obtained:
# CYP2B6 [1] = biological target: T1, CYP2B6 (Homo sapiens, UniProt P20813); settings: 2B6+ clone microsomes; nonlinear regression
# recombinant human CYP3A4 = settings: 3A4+ clone microsomes; nonlinear regression
# CYP3A4 = assay: in vitro; settings: human, pH 7.4, Km, 3A4+ clone microsomes; nonlinear regression; substrate 1–100 μM, 37°C
# recombinant human CYP2D6 = recombinant human CYP2D6 (Homo sapiens, UniProt P10635); assay: CYP activity assay, deethylation of fluorogenic substrate by microsomes of 2D6+ clone; settings: 2D6+ clone microsomes, nonlinear regression
# CYP2B6 [2] = biological target: T1, CYP2B6; assay: in vitro; settings: pH 7.4, Km, 2B6+ clone microsomes, nonlinear regression, substrate 1–100 μM, 37°C
# [3] = system: CYP2D6 + RAD54 system (CPR-CYP2D6 and RAD54-GFP constructs)
# in vitro = settings: Saccharomyces cerevisiae
# [4] = system: CYP2B6 + RAD54 system (CPR-CYP2B6 and RAD54-GFP constructs)
# [5] = system: RAD54 system (only the RAD54-GFP construct)
# [6] = system: CYP3A4 + RAD54 system (CPR-CYP3A4 and RAD54-GFP constructs)
# [7] = system: NCs system (control pESC-URA and pUMGP5 plasmids)
# [8] = system: RAD54-GFP integrant + CYP3A4; settings: cited from earlier work
# [9] = system: RAD54-GFP integrant + CYP1A2; settings: cited from earlier work
# RAD54-GFP integrant = settings: concentration 1.02–33 μg/mL; ref Walsh et al. 2005 [30]; cited from earlier work
# [10] = substrate: CCOc1ccc2cc(C#N)c(=O)oc2c1; assay: cells, lysate or membranes named; settings: other: 2D6+ clone microsomes, nonlinear regression, substrate 1–100 μM, 37°C
# [11] = concentration 1.02–33 μg/mL, ref Walsh et al. 2005 [30]
# T1 sequence (P20813 whole entry): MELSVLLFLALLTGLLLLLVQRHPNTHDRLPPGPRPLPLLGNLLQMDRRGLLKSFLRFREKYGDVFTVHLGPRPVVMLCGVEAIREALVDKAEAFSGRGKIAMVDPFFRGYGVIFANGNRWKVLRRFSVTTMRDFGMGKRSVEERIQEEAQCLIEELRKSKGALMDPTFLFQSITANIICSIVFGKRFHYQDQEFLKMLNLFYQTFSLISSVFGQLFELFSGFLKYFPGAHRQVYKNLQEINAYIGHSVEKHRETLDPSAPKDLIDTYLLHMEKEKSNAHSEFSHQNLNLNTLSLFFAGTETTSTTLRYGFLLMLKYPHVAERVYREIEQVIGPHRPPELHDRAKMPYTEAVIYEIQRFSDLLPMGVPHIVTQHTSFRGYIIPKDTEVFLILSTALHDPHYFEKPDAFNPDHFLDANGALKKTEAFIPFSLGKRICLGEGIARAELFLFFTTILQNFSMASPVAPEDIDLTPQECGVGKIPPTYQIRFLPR
molecule,measurement,setting,value
CCOc1ccc2cc(C#N)c(=O)oc2c1 [7-ethoxycoumarin-3-carbonitrile],Vmax,CYP2B6 [1],2.7 pmol/pmol CYP/min
same,Vmax,recombinant human CYP3A4,3.2 pmol/pmol CYP/min
same,Km,CYP3A4,3.5 µM
same,Vmax,recombinant human CYP2D6,~ 4.7 pmol/pmol CYP/min
same,Km,"recombinant human CYP2D6; substrate 1–100 μM, 37°C",~2.1 µM
same,Km,CYP2B6 [2],3.7 µM
"c1ccc2c(c1)cc1ccc3cccc4ccc2c1c34 [Benzo(a)pyrene, benzo(a)pyrene]","GFP fold induction signal, CYP2D6 + RAD54","[3]; 10 μM, 16 h at 30°C","– (Negative (≤1.3 GFP fold induction),–)"
same,"GFP fold induction signal, CYP2D6 + RAD54","[3]; 20 μM, 16 h at 30°C","– (Negative (≤1.3 GFP fold induction),–)"
same,"GFP fold induction signal, CYP2D6 + RAD54","[3]; 40 μM, 16 h at 30°C","– (Negative (≤1.3 GFP fold induction),–)"
same,fold induction,in vitro,≤ 1.3
same,"GFP fold induction signal, CYP2B6 + RAD54","[4]; 10 μM, 16 h at 30°C","– (Negative (≤1.3 GFP fold induction),–)"
same,"GFP fold induction signal, CYP2B6 + RAD54","[4]; 20 μM, 16 h at 30°C","– (Negative (≤1.3 GFP fold induction),–)"
same,"GFP fold induction signal, CYP2B6 + RAD54","[4]; 40 μM, 16 h at 30°C","– (Negative (≤1.3 GFP fold induction),–)"
same,"GFP fold induction signal, RAD54","[5]; 10 μM, 16 h at 30°C","– (Negative (≤1.3 GFP fold induction),–)"
same,"GFP fold induction signal, RAD54","[5]; 20 μM, 16 h at 30°C","– (Negative (≤1.3 GFP fold induction),–)"
same,"GFP fold induction signal, RAD54","[5]; 40 μM, 16 h at 30°C","– (Negative (≤1.3 GFP fold induction),–)"
same,"Genotoxicity result, present study, CYP3A4 + RAD54",[6],+
same,"GFP fold induction signal, CYP3A4 + RAD54","[6]; 10 μM, 16 h at 30°C","+ (positive (>1.3 GFP fold induction), + (1.3, 2])"
same,"GFP fold induction signal, CYP3A4 + RAD54","[6]; 20 μM, 16 h at 30°C","+ (positive (>1.3 GFP fold induction), + (1.3, 2])"
same,"GFP fold induction signal, CYP3A4 + RAD54","[6]; 40 μM, 16 h at 30°C","++ (++ (2, 3])"
same,"GFP fold induction signal, NCs","[7]; 10 μM, 16 h at 30°C","– (Negative (≤1.3 GFP fold induction),–)"
same,"GFP fold induction signal, NCs","[7]; 20 μM, 16 h at 30°C","– (Negative (≤1.3 GFP fold induction),–)"
same,"GFP fold induction signal, NCs","[7]; 40 μM, 16 h at 30°C","– (Negative (≤1.3 GFP fold induction),–)"
"COS(C)(=O)=O [Methyl methanesulfonate, methyl methanesulfonate]","Genotoxicity result, published report, RAD54-GFP integrant + CYP3A4",[8]; [11],+
same,"GFP fold induction signal, CYP2D6 + RAD54","[3]; 25 μM, 16 h at 30°C","+ (positive (>1.3 GFP fold induction), + (1.3, 2])"
same,"GFP fold induction signal, CYP2D6 + RAD54","[3]; 50 μM, 16 h at 30°C","+++ (+++ (3, 4])"
same,"GFP fold induction signal, CYP2D6 + RAD54","[3]; 100 μM, 16 h at 30°C","++++ (++++ (4, ∞])"
same,"Genotoxicity result, present study, CYP2D6 + RAD54",[3]; concentration 2.75–11.01 μg/mL,+
same,"Genotoxicity result, published report, RAD54-GFP integrant + CYP1A2",[9]; [11],+
same,"Genotoxicity result, published report, RAD54-GFP integrant",RAD54-GFP integrant,+
same,"GFP fold induction signal, CYP2B6 + RAD54","[4]; 25 μM, 16 h at 30°C","+ (positive (>1.3 GFP fold induction), + (1.3, 2])"
same,"GFP fold induction signal, CYP2B6 + RAD54","[4]; 50 μM, 16 h at 30°C","+++ (+++ (3, 4])"
same,"GFP fold induction signal, CYP2B6 + RAD54","[4]; 100 μM, 16 h at 30°C","++++ (++++ (4, ∞])"
same,"Genotoxicity result, present study, CYP2B6 + RAD54",[4]; concentration 2.75–11.01 μg/mL,+
same,"GFP fold induction signal, RAD54","[5]; 25 μM, 16 h at 30°C","+ (positive (>1.3 GFP fold induction), + (1.3, 2])"
same,"GFP fold induction signal, RAD54","[5]; 50 μM, 16 h at 30°C","+++ (+++ (3, 4])"
same,"GFP fold induction signal, RAD54","[5]; 100 μM, 16 h at 30°C","++++ (++++ (4, ∞])"
same,"Genotoxicity result, present study, RAD54",[5]; concentration 2.75–11.01 μg/mL,+
same,"GFP fold induction signal, CYP3A4 + RAD54","[6]; 25 μM, 16 h at 30°C","+ (positive (>1.3 GFP fold induction), + (1.3, 2])"
same,"GFP fold induction signal, CYP3A4 + RAD54","[6]; 50 μM, 16 h at 30°C","+++ (+++ (3, 4])"
same,"GFP fold induction signal, CYP3A4 + RAD54","[6]; 100 μM, 16 h at 30°C","++++ (++++ (4, ∞])"
same,"Genotoxicity result, present study, CYP3A4 + RAD54",[6]; concentration 2.75–11.01 μg/mL,+
same,"GFP fold induction signal, NCs","[7]; 25 μM, 16 h at 30°C","– (Negative (≤1.3 GFP fold induction),–)"
same,"GFP fold induction signal, NCs","[7]; 50 μM, 16 h at 30°C","– (Negative (≤1.3 GFP fold induction),–)"
same,"GFP fold induction signal, NCs","[7]; 100 μM, 16 h at 30°C","– (Negative (≤1.3 GFP fold induction),–)"
N-nitrosodimethylamine,"Genotoxicity result, published report, RAD54-GFP integrant + CYP3A4",[8],+
same,"GFP fold induction signal, CYP2D6 + RAD54",[3],"– (key: Negative (≤1.3 GFP fold induction),–; positive (>1.3 GFP fold induction), + (1.3, 2]; ++ (2, 3]; +++ (3, 4]; ++++ (4, ∞])"
same,"Genotoxicity result, present study, CYP2B6 + RAD54",[4],+
same,GFP fold induction,[5],≤ 1.3
same,"GFP fold induction signal, RAD54",[5],"– (key: Negative (≤1.3 GFP fold induction),–; positive (>1.3 GFP fold induction), + (1.3, 2]; ++ (2, 3]; +++ (3, 4]; ++++ (4, ∞])"
same,"GFP fold induction signal, CYP3A4 + RAD54",[6],"– (key: Negative (≤1.3 GFP fold induction),–; positive (>1.3 GFP fold induction), + (1.3, 2]; ++ (2, 3]; +++ (3, 4]; ++++ (4, ∞])"
same,"GFP fold induction signal, NCs",[7],"– (key: Negative (≤1.3 GFP fold induction),–; positive (>1.3 GFP fold induction), + (1.3, 2]; ++ (2, 3]; +++ (3, 4]; ++++ (4, ∞])"
aflatoxin B1,"GFP fold induction signal, CYP2D6 + RAD54",[3]; 0.1 µM,"– (key: Negative (≤1.3 GFP fold induction),–; positive (>1.3 GFP fold induction), + (1.3, 2]; ++ (2, 3]; +++ (3, 4]; ++++ (4, ∞])"
same,"GFP fold induction signal, CYP2D6 + RAD54",[3]; 0.2 µM,"– (key: Negative (≤1.3 GFP fold induction),–; positive (>1.3 GFP fold induction), + (1.3, 2]; ++ (2, 3]; +++ (3, 4]; ++++ (4, ∞])"
same,"GFP fold induction signal, CYP2D6 + RAD54",[3]; 0.4 µM,"– (key: Negative (≤1.3 GFP fold induction),–; positive (>1.3 GFP fold induction), + (1.3, 2]; ++ (2, 3]; +++ (3, 4]; ++++ (4, ∞])"
same,"Genotoxicity result, published report, RAD54-GFP integrant + CYP1A2",[9],+
same,"Genotoxicity result, present study, CYP2B6 + RAD54",[4],+
same,"GFP fold induction signal, CYP2B6 + RAD54",[4]; 0.1 µM,"– (key: Negative (≤1.3 GFP fold induction),–; positive (>1.3 GFP fold induction), + (1.3, 2]; ++ (2, 3]; +++ (3, 4]; ++++ (4, ∞])"
same,"GFP fold induction signal, CYP2B6 + RAD54",[4]; 0.2 µM,"– (key: Negative (≤1.3 GFP fold induction),–; positive (>1.3 GFP fold induction), + (1.3, 2]; ++ (2, 3]; +++ (3, 4]; ++++ (4, ∞])"
same,"GFP fold induction signal, CYP2B6 + RAD54",[4]; 0.4 µM,"+ (key: Negative (≤1.3 GFP fold induction),–; positive (>1.3 GFP fold induction), + (1.3, 2]; ++ (2, 3]; +++ (3, 4]; ++++ (4, ∞])"
same,GFP fold induction,[5],≤ 1.3
same,"GFP fold induction signal, RAD54",[5]; 0.1 µM,"– (key: Negative (≤1.3 GFP fold induction),–; positive (>1.3 GFP fold induction), + (1.3, 2]; ++ (2, 3]; +++ (3, 4]; ++++ (4, ∞])"
same,"GFP fold induction signal, RAD54",[5]; 0.2 µM,"– (key: Negative (≤1.3 GFP fold induction),–; positive (>1.3 GFP fold induction), + (1.3, 2]; ++ (2, 3]; +++ (3, 4]; ++++ (4, ∞])"
same,"GFP fold induction signal, RAD54",[5]; 0.4 µM,"– (key: Negative (≤1.3 GFP fold induction),–; positive (>1.3 GFP fold induction), + (1.3, 2]; ++ (2, 3]; +++ (3, 4]; ++++ (4, ∞])"
same,"Genotoxicity result, present study, CYP3A4 + RAD54",[6],+
same,"GFP fold induction signal, CYP3A4 + RAD54",[6]; 0.1 µM,"+ (key: Negative (≤1.3 GFP fold induction),–; positive (>1.3 GFP fold induction), + (1.3, 2]; ++ (2, 3]; +++ (3, 4]; ++++ (4, ∞])"
same,"GFP fold induction signal, CYP3A4 + RAD54",[6]; 0.2 µM,"++ (key: Negative (≤1.3 GFP fold induction),–; positive (>1.3 GFP fold induction), + (1.3, 2]; ++ (2, 3]; +++ (3, 4]; ++++ (4, ∞])"
same,"GFP fold induction signal, CYP3A4 + RAD54",[6]; 0.4 µM,"++ (key: Negative (≤1.3 GFP fold induction),–; positive (>1.3 GFP fold induction), + (1.3, 2]; ++ (2, 3]; +++ (3, 4]; ++++ (4, ∞])"
same,"GFP fold induction signal, NCs",[7]; 0.1 µM,"– (key: Negative (≤1.3 GFP fold induction),–; positive (>1.3 GFP fold induction), + (1.3, 2]; ++ (2, 3]; +++ (3, 4]; ++++ (4, ∞])"
same,"GFP fold induction signal, NCs",[7]; 0.2 µM,"– (key: Negative (≤1.3 GFP fold induction),–; positive (>1.3 GFP fold induction), + (1.3, 2]; ++ (2, 3]; +++ (3, 4]; ++++ (4, ∞])"
same,"GFP fold induction signal, NCs",[7]; 0.4 µM,"– (key: Negative (≤1.3 GFP fold induction),–; positive (>1.3 GFP fold induction), + (1.3, 2]; ++ (2, 3]; +++ (3, 4]; ++++ (4, ∞])"
B1,Km,[10],2.1 µM
same,kcat,[10],4.7 pmol/pmol CYP/min
same,kcat/Km,[10],2.2 μL/pmol CYP/min

# — paper PMC5179006, “Procarcinogens – Determination and Evaluation by Yeast-Based Biosensor Transformed with Plasmids Incorporating RAD54 Reporter Construct and Cytochrome P450 Genes” (PLoS ONE, 2016)
